Measured values as given in PMC4494942, “Sorafenib and DE605, a novel c-Met inhibitor, synergistically suppress hepatocellular carcinoma” (Oncotarget, 2015).
Blank lines part the entries; values can stand above or below the molecule they belong to.

Columns and labels:
[1] = system: MHCC97H human HCC xenograft model and HuPrime model with human HCC explants; settings: cited from earlier work
HuH7 cells = test: MTT cell viability assay, HuH7; format: cell-based; settings: Homo sapiens, Huh-7, HuH7, 72 h
Protocol: (§1) Cells were seeded in 96-well plates (3,000 cells/well) and incubated overnight for attachment, and were then treated with indicated agents in 10% FBS-supplemented medium for 72 hours. The medium was replaced with MTT (0.5 mg/ml) at 37°C for 2 hours. After removal of medium, the cells were lysed with 200 μl per well dimethyl sulfoxide (DMSO), and absorbance at 570 nm was measured and the values of 50% inhibition concentration (IC50) for each drug were determined. Cell viability was evaluated by measuring the optical density at 570 nm using an Automated Microplate Reader (Bio-Tek, USA). The percentage of viable cells was calculated using the following formula: cell viability (%) = (OD of treated cells/OD of control cells) × 100. All assays were performed in triplicate with at least 3 independent experiments.

Hep3B cells = test: MTT cell viability assay, Hep3B; settings: Homo sapiens, 72 h, read-out: cell viability IC50
Protocol: as §1

HepG2 cells = test: MTT cell viability assay, HepG2; format: cell-based; settings: Homo sapiens, HepG2, 72 h
Protocol: as §1

PLC/PRF/5 cells [2] = test: MTT cell viability assay, PLC/PRF/5; format: cell-based, human; settings: PLC/PRF/5, 72 h
Protocol: as §1

PLC/PRF/5 cells [3] = test: cell-cycle distribution by flow cytometry; format: cell-based, human; settings: PLC/PRF/5, 72 h, single agent
Protocol: As sorafenib and c-Met inhibitors reportedly induce apoptosis in cancer cells, we examined the impact of our drug combination on programmed cell death. First, the effect of co-administration of DE605 and sorafenib on cell-cycle distribution was analyzed by flow cytometric analysis.
Figure 3 Effects of sorafenib in combination with DE605 on cell-cycle progression in PLC/PRF/5 cells (A) PLC/PRF/5 cells were treated with the indicated drugs for 72 hours, and cell-cycle distribution was analyzed by flow cytometry. (B) Statistical analysis of sub-G1 phase in PLC/PRF/5 cells exposed to DMSO, sorafenib alone, DE605 alone, or in sorafenib/DE605 combination. Data, mean ± SD (n = 3).
After drug treatment, the cells were harvested by trypsinization, washed with PBS, then pellets were resuspended and fixed in ethanol (70%, v/v) at −20°C overnight, and washed once with PBS. After centrifugation, the cells were incubated for 15 minutes at room temperature in 0.1 ml of phosphate-citric acid buffer. Cells were stained with propidium iodide staining buffer containing Triton X-100 (0.1%, v/v), RNase A (100 μg/ml), and propidium iodide (80 μg/ml) for 30 minutes in the dark. Cell-cycle distribution was analyzed by flow cytometry with CellQuest software (Becton Dickinson).

[4] = system: PLC/PRF/5 tumor xenografts; test: PLC/PRF/5 tumor xenograft model; settings: oral, qd, 28 days; sorafenib 60 mg/kg, DE605 80 mg/kg; versus control group
Protocol: (B) body weights were measured twice per week, and are expressed as mean ± SD. (C-D) IHC analysis of intratumoral proliferation in PLC/PRF/5 xenograft tumors. Tumors were harvested and paraffin-embedded tumor tissues were subjected to immunostaining for Ki-67 (C) and TUNEL (D). Images were captured by Zeiss Axioskop-2 microscope under 200× magnification. Scale bar, 100 μm.
All surgery was performed under sodium pentobarbital anesthesia, and all efforts were made to minimize suffering. Female athymic nude mice of 4–5 weeks of age were purchased from Shanghai SLAC Laboratory Animal Co., Ltd. (Shanghai, China) and were housed in the Animal Resource Facility. […] Tumors were monitored twice weekly. As previously described [54], tumor size was measured on two axes with the aid of Vernier calipers and tumor volume (mm^3) was calculated using the formula: 1/2(L × W^2) where L is the longest and W is the shortest axis. […] For tumor growth inhibition (TGI), the antitumor effects are calculated by dividing the tumor volumes from treatment groups by those of the control groups and multiplied by 100. […]
The type of cell death (necrosis/apoptosis) was evaluated by the terminal deoxynucleotidyl transferase-mediated deoxyuridine biotin nick-end labeling (TUNEL) assay with an Apo-Direct kit (Pharmingen, San Diego, CA) as previously reported [55]. […]

SMILES: CN1CCC(COc2cnc(-c3cccc(Cn4nc(-c5cccc(C#N)c5)ccc4=O)c3)nc2)CC1 [MSC2156119J]
efficacy of combination with sorafenib [1]: did not improve efficacy

IC50 (HuH7 cells): 2.4 µM | IC50 (Hep3B cells): 10.5 µM | IC50 (HepG2 cells): 3.3 µM
SMILES: CNC(=O)c1cc(Oc2ccc(NC(=O)Nc3ccc(Cl)c(C(F)(F)F)c3)cc2)ccn1 [sorafenib]
IC50 (PLC/PRF/5 cells [2]; Homo sapiens, MTT): 6.7 µM | cell-cycle arrest (PLC/PRF/5 cells [3]): no appreciable cell-cycle arrest | tumor growth inhibition (TGI) [4]: 17.3%

SMILES: O=C1NC(=O)[C@@H](c2cn3c4c(cccc24)CCC3)[C@@H]1c1c[nH]c2ccccc12 [tivantinib]
interaction with sorafenib on cell viability (combination index) (PLC/PRF/5 cells [2]; tivantinib 0.25 and 0.5 μM in combination with sorafenib): synergistic effect
